Patent US11298333B1, “Methods of reducing the risk of cardiovascular events in a subject” (Amarin Pharmaceuticals Ireland Limited, priority 2018, dated 2022)

Tests used:
[1] = test system: statin-treated patients with a history of atherosclerosis or diabetes; test: REDUCE-IT Example 3: total (first and subsequent) ischemic events (negative binomial, Andersen-Gill, Wei-Lin-Weissfeld Li-Lagakos, joint frailty; reduced and full dataset); type: in vivo, human; set-up: Relative risk reduction in total (first and subsequent) ischemic events for the primary composite endpoint / First events reduced by / Second events reduced by / Third events reduced by / Fourth or more events reduced by: concentration or dose not given beside the values
Text: The following study was a multi-center, placebo-controlled clinical trial the details of which are described above in Example 1, the REDUCE-IT design. […] The main outcomes were total primary composite endpoint events defined as cardiovascular death, nonfatal myocardial infarction, nonfatal stroke, coronary revascularization, or hospitalization for unstable angina and total key secondary composite endpoint events defined as cardiovascular death, nonfatal myocardial infarction, or nonfatal stroke. In the context of this study, total events refer to any first event as well as any subsequent event. Differences in total events were determined using other statistical models, including Andersen-Gill, Wei-Lin-Weisfeld (Li and Lagakos), both pre-specified, and a post hoc and joint-frailty analysis.
For the present prespecified analysis, the primary outcome was the total of first plus subsequent ischemic events consisting of the composite of cardiovascular death, nonfatal myocardial infarction, nonfatal stroke, coronary revascularization, or hospitalization for unstable angina. […] Exploratory analyses of the total of first and subsequent events were also performed for the key secondary composite endpoint.
Baseline characteristics were compared between treatment groups using the chi-squared test for categorical variables and the Wilcoxon rank sum test for continuous variables. There are several methods for analyzing first and subsequent (recurrent) event data. As a pre-specified statistical method, a negative binomial regression was used to calculate rates and rate ratios for total cardiovascular events, which accounts for the variability in each patient's risk of events. As pre-specified supportive analyses, the modified Wei-Lin-Weissfeld method (Li and Lagakos modification) was used to calculate hazard ratios (HRs) for the time to the first event, second event, or third event. An additional pre-specified analysis, the Andersen-Gill model using a Cox proportional-hazard with the counting-process formulation was performed to model the total events. In addition, in order to account for informative censoring due to cardiovascular death, the HR for total non-fatal events was calculated using a joint frailty model (See Rondeau V. Joint frailty models for recurring events and death using maximum penalized likelihood estimation: application on cancer events. Biostatistics. 2007; 8:708-21). The joint frailty model simultaneously estimates hazard functions for non-fatal and fatal CV events and takes into account the fact that patients who are prone to have nonfatal events have an elevated risk of a cardiovascular death. The application of the joint frailty model used a gamma distribution for the frailty term.
Statistical analyses using the full adjudicated endpoint events dataset without exclusions using this bundling approach were also determined.

[2] = REDUCE-IT: blood pressure, repeated-measurements analysis of change from baseline; type: in vivo, human; details: 4 g per day; ITT; mixed effects model; exploratory
Experimental: Blood pressure was measured using a standardized process: • Patient sat for […] with feet flat on the floor and measurement arm supported so that the midpoint of the manometer cuff was at heart level; and • Used a mercury sphygmomanometer or automatic blood pressure device with an appropriately sized cuff with the bladder centered over the brachial artery.
Blood pressure was recorded to the nearest 2 mmHg mark on the manometer or to the nearest whole number on an automatic device. A blood pressure reading was repeated 1 to 2 minutes later, and the second reading recorded to the nearest 2 mmHg mark.
It is contemplated that a number of factors contribute to the significant reduction in the cardiovascular risk. Without intending to be bound by any particular theory, one of the contributing factors might relate to the dose and formulation of the icosapent ethyl administered to the patients, in marked contrast to previous studies of omega-3 fatty acid studies. An additional contributing factor could relate to the patients' blood pressure. […] These differences appear to be modest, but it is contemplated, that they might contribute to the benefits of icosapent ethyl. […]

[3] = Andersen-Gill (I), full dataset, adjusted for stratification factors, vs placebo
[4] = Andersen-Gill (I), full dataset, vs placebo
[5] = Andersen-Gill (I), reduced dataset, adjusted for stratification factors, vs placebo
[6] = Andersen-Gill (I), reduced dataset, vs placebo
[7] = Andersen-Gill (II), full dataset, adjusted for stratification factors, vs placebo
[8] = Andersen-Gill (II), full dataset, vs placebo
[9] = Andersen-Gill (II), reduced dataset, adjusted for stratification factors, vs placebo
[10] = Andersen-Gill (II), reduced dataset, vs placebo
[11] = Wei-Lin-Weissfeld model (Li and Lagakos)
[12] = modified WLW, full dataset, adjusted for stratification factors, vs placebo
[13] = modified WLW, full dataset, vs placebo
[14] = negative binomial, full dataset, adjusted for stratification factors, vs placebo
[15] = negative binomial, full dataset, vs placebo
[16] = negative binomial, reduced dataset, adjusted for stratification factors, vs placebo
[17] = negative binomial, reduced dataset, vs placebo
[18] = number of events, icosapent ethyl arm N = 4089, full dataset
[19] = number of events, after reduction
[20] = number of events, multiple endpoints in a single calendar day handled as a single event
[21] = share of overall events in the category, after reduction

CC/C=C\C/C=C\C/C=C\C/C=C\C/C=C\CCCC(=O)OCC [Icosapent Ethyl, eicosapentaenoic acid ethyl ester]
Adjusted HR, key secondary composite endpoint [1, 3]: 0.71 | Adjusted HR, primary composite endpoint [1, 3]: 0.68 | Unadjusted HR, key secondary composite endpoint [1, 4]: 0.71 | Unadjusted HR, primary composite endpoint [1, 4]: 0.68 | Adjusted HR, total key secondary composite endpoint events [1, 5]: 0.72 | Adjusted HR, total primary composite endpoint events [1, 5]: 0.69 | Unadjusted HR, total key secondary composite endpoint events [1, 6]: 0.72 | Unadjusted HR, total primary composite endpoint events [1, 6]: 0.69 | Adjusted HR, key secondary composite endpoint [1, 7]: 0.71 | Adjusted HR, primary composite endpoint [1, 7]: 0.68 | Unadjusted HR, key secondary composite endpoint [1, 8]: 0.71 | Unadjusted HR, primary composite endpoint [1, 8]: 0.68 | Adjusted HR, total key secondary composite endpoint events [1, 9]: 0.72 | Adjusted HR, total primary composite endpoint events [1, 9]: 0.69 | Unadjusted HR, total key secondary composite endpoint events [1, 10]: 0.72 | Unadjusted HR, total primary composite endpoint events [1, 10]: 0.69 | Cardiovascular deaths prevented per 1000 patients treated for five years ([1]; FIG. 38): 12 | Coronary revascularizations prevented per 1000 patients treated for five years ([1]; FIG. 38): 76 | Episodes of hospitalization for unstable angina prevented per 1000 patients treated for five years ([1]; FIG. 38): 16 | Myocardial infarctions prevented per 1000 patients treated for five years ([1]; FIG. 38): 42 | Strokes prevented per 1000 patients treated for five years ([1]; FIG. 38): 14 | First occurrence of primary composite endpoint: HR vs placebo [1, 11]: 0.75 | Second occurrence of primary composite endpoint: HR vs placebo [1, 11]: 0.68 | First events reduced by ([1]; in vivo): 25% | Fourth or more events reduced by ([1]; in vivo): 48% | Relative risk reduction in total (first and subsequent) ischemic events for the primary composite endpoint ([1]; in vivo): 30% | Second events reduced by ([1]; in vivo): 32% | Third events reduced by ([1]; in vivo): 31% | Adjusted HR, key secondary composite endpoint, first event [1, 12]: 0.74 | Adjusted HR, key secondary composite endpoint, second event [1, 12]: 0.75 | Adjusted HR, key secondary composite endpoint, third event [1, 12]: 0.79 | Adjusted HR, primary composite endpoint, first event [1, 12]: 0.75 | Adjusted HR, primary composite endpoint, second event [1, 12]: 0.68 | Adjusted HR, primary composite endpoint, third event [1, 12]: 0.70 | Unadjusted HR, key secondary composite endpoint, first event [1, 13]: 0.74 | Unadjusted HR, key secondary composite endpoint, second event [1, 13]: 0.75 | Unadjusted HR, key secondary composite endpoint, third event [1, 13]: 0.79 | Unadjusted HR, primary composite endpoint, first event [1, 13]: 0.76 | Unadjusted HR, primary composite endpoint, second event [1, 13]: 0.69 | Unadjusted HR, primary composite endpoint, third event [1, 13]: 0.70 | Total key secondary endpoint events: rate ratio (RR) vs placebo ([1]; negative binomial model): 0.72 | Total primary endpoint events: rate ratio (RR) vs placebo ([1]; negative binomial model): 0.70 | Adjusted RR, key secondary composite endpoint [1, 14]: 0.71 | Adjusted RR, primary composite endpoint [1, 14]: 0.69 | Unadjusted RR, key secondary composite endpoint [1, 15]: 0.71 | Unadjusted RR, primary composite endpoint [1, 15]: 0.67 | Adjusted RR, total key secondary composite endpoint events [1, 16]: 0.72 | Adjusted RR, total primary composite endpoint events [1, 16]: 0.70 | Unadjusted RR, total key secondary composite endpoint events [1, 17]: 0.71 | Unadjusted RR, total primary composite endpoint events [1, 17]: 0.68 | Total events before reduction, key secondary endpoint [1, 18]: 590 n | Total events before reduction, primary endpoint [1, 18]: 1185 n | Fatal events, key secondary endpoint [1, 19]: 174 n | Fatal events, primary endpoint [1, 19]: 174 n | Non-fatal events, key secondary endpoint [1, 19]: 384 n | Non-fatal events, primary endpoint [1, 19]: 902 n | Total events after reduction, key secondary endpoint [1, 20]: 558 n | Total events after reduction, primary endpoint [1, 20]: 1076 n | Fatal events, key secondary endpoint [1, 21]: 45.0% | Fatal events, primary endpoint [1, 21]: 45.0% | Total events after reduction, primary endpoint [1, 21]: 41.0% | Total events before reduction, key secondary endpoint ([1]; share of overall events in the category, icosapent ethyl arm N = 4089): 42.0% | Average placebo-corrected reduction from baseline in diastolic blood pressure [2]: 0.5 mm Hg | Average placebo-corrected reduction from baseline in systolic blood pressure [2]: 1.3 mm Hg
